# Assay results published in patent publication US9949948B2, “Artemisinin and its derivatives for use in the treatment of trauma haemorrhage and associated conditions” (Queen Mary University of London, priority 2011, dated 2018).
# Key:
# Assay type in all cases: in vivo, Wistar rats
# [1] = test system: burn injury rats; test: Organ injury and dysfunction induced by burn injury in the rat; conditions: 3 mg/kg i.v. 30 min prior to and 30 min after burn injury
# Experimental: Twenty-two male Wistar rats (Harlan, Udine, Italy) weighing 300 to 350 g were anaesthetised with sodium pentobarbital (Eutasil™, 60 mg/kg i.p.; Sanofi Veterinária, Algés, Portugal), which was supplemented as required. Anaesthetised rats were shaved (dorsum and abdomen) and placed onto a thermostatically controlled heating mat (Harvard Apparatus Ltd, Kent, U.K.) and body temperature maintained at 37±1° C. by means of a rectal probe attached to a homeothermic blanket. A tracheotomy was performed to maintain airway patency and to facilitate spontaneous respiration. Thirty minutes prior to burn injury, rats were treated with vehicle or drug, as described in section 3.2. To induce burn injury, a 60% third degree skin burn was induced by immersing dorsal shaved skin in 99° C. water for 10 s using a synthetic foam template. The rats were then dried and placed over the heating mat. Rats were sacrificed at 6 hours after burn injury by overdose of the anaesthetic and serum samples obtained for analysis of organ injury and dysfunction.
# Sham-operated rats underwent identical surgical procedures but without burn injury (immersed in room temperature water).
# [2] = test system: rats subjected to regional myocardial ischaemia and reperfusion; test: Regional myocardial ischaemia and reperfusion, artesunate dissolved in 10% DMSO; conditions: for Infarct size reduction: vs control; for infarct size (percentage of the AAR): control 59.8±3.2%, P<0.05
# Experimental: (§1) Rats were anesthetised with thiopentone sodium (Intraval® 120 mg/kg i.p.). Anesthesia was maintained by supplementary injections of thiopentone sodium as required. The trachea was cannulated and the animals were ventilated with a Harvard ventilator (inspiratory oxygen concentration: 30%; 70 strokes/min, tidal volume: 8-10 ml/kg). Body temperature was maintained at 37+1° C. with the aid of a rectal probe thermometer attached to a homeothermic blanket unit (Harvard Apparatus Ltd., Edenbridge, Kent. U.K.). […] The right jugular vein was then cannulated for the administration of drugs and saline. A para-sternal thoracotomy was then performed, using an Electrosurgery device to cauterize the intercostals arteries before cutting through three ribs. The chest was retracted and pericardium dissected from the heart. The left anterior descending (LAD) coronary artery was isolated and a snare occluder was placed around the LAD. The retractor was then removed and the animal was allowed to stabilise for 15 min.
# (§2) The occluder was tightened at time 0. After 25 min of LAD-occlusion, the occluder was released to allow reperfusion of the previously ischemic myocardium (2 h). Hemodynamic parameters were continuously monitored. Baseline readings were taken prior to treatment, and, myocardial IRI. The pressure rate index (PRI), a relative indicator of myocardial oxygen consumption was calculated as a product of the MAP (mmHg) and HR (beats/minute-bpm) and expressed in mm Hg bpm×10-3.
# (§3) At the end of the 2 h reperfusion period, the LAD was re-occluded and 1 ml of Evans Blue dye (2% w/v) was injected into the animal, via the jugular vein. The Evans Blue dye stains the tissue it can circulate through, therefore the non-perfused vascular (occluded) tissue remains un-coloured. Each animal was killed with an over-dose of anaesthetic, the heart excised, and excess dye washed off. […] The ischaemic and non-ischaemic tissue was weighed, and the AAR expressed as a percentage of the left ventricle. The tissue from the AAR was cut into small pieces and incubated with p-nitroblue tetrazolium (NBT, 0.5 mg/ml) for 30 min at 37° C. NBT is a reducing agent that reacts with dehydrogenases present in viable (non-infarcted) tissue to produce a dark blue formazan. Infarcted tissue (non-viable) will not have dehydrogenase activity and will therefore fail to stain. The stained tissue was separated from the infarcted tissue, weighed, and the infarct size expressed as a percentage of the AAR.
# [3] = test system: rats subjected to regional myocardial ischaemia and reperfusion; test: Regional myocardial ischaemia and reperfusion, vehicle 5% sodium bicarbonate; conditions: for infarct size (percentage of the AAR): control 57.6±2.1%; for area at risk: compared to vehicle treated rats
# Experimental: as §1, with “anaesthetised” for “anesthetised”, “Anaesthesia” for “Anesthesia”, “37±1°” for “37+1°”, “Kent,” for “Kent.”
# as §2, with “Haemodynamic” for “Hemodynamic”, “ischaemia reperfusion (IR) injury.” for “IRI.”, “bpm×10^−3.” for “bpm×10-3.”
# as §3
# (§4) Sham-operated rats were subjected to surgical procedure without myocardial ischaemia and reperfusion.
# [4] = test system: rats subjected to regional myocardial ischaemia and reperfusion; test: Regional myocardial ischaemia and reperfusion, artesunate and dihydroartemisinin
# Experimental: as §1, with “anaesthetised” for “anesthetised”, “Anaesthesia” for “Anesthesia”, “37±1°” for “37+1°”
# as §2, with “Haemodynamic” for “Hemodynamic”, “ischaemia reperfusion (IR) injury.” for “IRI.”, “bpm×10^−3.” for “bpm×10-3.”
# as §3, §4
# [5] = bolus 10, 3, 1 mg/kg in 10% DMSO upon reperfusion, P>0.05 vs Control
# [6] = 1 mg/kg i.v. upon reperfusion, vs control
# [7] = bolus 0.3, 1 or 10 mg/kg upon reperfusion, P>0.05 vs Control
# [8] = bolus 1 mg/kg upon reperfusion, P>0.05 vs Control
compound,measurement,setting,value
C[C@H]1[C@H](OC(=O)CCC(=O)O)O[C@@H]2O[C@@]3(C)CC[C@H]4[C@H](C)CC[C@@H]1[C@@]24OO3 [artesunate],rise in serum creatinine,"[1]; 6 h after burn, P<0.05",significantly attenuated
same,rise in serum urea,"[1]; 6 h after burn, P<0.05",significantly attenuated
same,rise in serum ALT,[1]; P>0.05,no significant effect
same,rise in serum AST,[1]; P>0.05,no significant effect
same,Infarct size reduction,[2]; 1 mg/kg i.v. upon reperfusion,12%
same,infarct size (percentage of the AAR),[2]; 1 mg/kg i.v. upon reperfusion,48.0±3.5%
same,Infarct size reduction,[2]; 3 mg/kg i.v. upon reperfusion,13%
same,infarct size (percentage of the AAR),[2]; 3 mg/kg i.v. upon reperfusion,46.9±2.3%
same,infarct size (percentage of the AAR),"[2]; 10 mg/kg i.v. bolus upon reperfusion, 25 min ischaemia, 2 h reperfusion",42.8±1.7%
same,Infarct size reduction,[2]; 10 mg/kg i.v. upon reperfusion,28%
same,fall in mean arterial blood pressure caused by myocardial ischaemia and reperfusion,[2]; [5],did not attenuate
same,heart rate,[2]; [5],did not have a significant effect
same,infarct size (percentage of the AAR),[3]; 0.3 mg/kg i.v. bolus upon reperfusion,44.0±2.61%
same,area at risk,[3]; 0.3 mg/kg,no significant effect
same,Infarct size reduction,[3]; [6],40%
same,infarct size (percentage of the AAR),"[3]; 1 mg/kg i.v. upon reperfusion, P<0.05",42.6±1.1%
same,area at risk,[3]; 1 mg/kg,no significant effect
same,infarct size,"[3]; 10 mg/kg i.v. upon reperfusion, P>0.05",no significant effect
same,area at risk,[3]; 10 mg/kg,no significant effect
same,fall in mean arterial blood pressure caused by myocardial ischaemia and reperfusion,[3]; [7],did not attenuate
same,heart rate,[3]; [7],did not have a significant effect
same,infarct size (percentage of the AAR),"[4]; 1 mg/kg i.v. bolus upon reperfusion, from 59.8±3.2, P<0.05",36.0±1.1%
same,Infarct size reduction,[4]; [6],40%
same,area at risk,"[4]; 1 mg/kg, compared to vehicle treated rats",no significant effect
same,fall in mean arterial blood pressure caused by myocardial ischaemia and reperfusion,[4]; [8],did not attenuate
same,heart rate,[4]; [8],did not have a significant effect
